Entries after “also recorded” stand apart in the source; their conditions may differ. Where no end group is shown, it is not given here.
Assays:
[1] = test system: insulin treated obese NIDDM patients; assay: Meal test in insulin treated obese NIDDM patients (Example 1); type: in vivo, human; conditions: meal-related, glibenclamide 1 mg i.v., GLP-1(7-36)amide infusion 0.75 pmol/kg/min for 210 min, 6 NIDDM patients
[2] = test system: patients with NIDDM and secondary failure to sulfonylurea treatment; assay: Basal state and meal test in NIDDM patients with secondary failure to sulfonylurea treatment (Example 2); type: in vivo, human; conditions: for Insulinogenic index: after ingestion of the meal, integrated insulin/integrated glucose response; for Blood glucose: 45 minutes after start of administration, glibenclamide 1 mg i.v., GLP-1(7-36)amide 0.75 pmol/kg/min
[3] = test system: isolated precultured rat pancreatic islets; conditions: in the presence of glucose; cited from earlier work
[4] = test system: diabetic as well as nondiabetic subjects; conditions: diabetic and nondiabetic subjects; cited from earlier work

Compound	Glucagon response [1]	Insulinogenic index [2]	Blood glucose ([2]; basal state)	effect on blood glucose and C-peptide levels ([2]; basal state, in words)	insulin release [3]	Glucagon response ([1]; listed as GLP-1(7-36) amide)	insulinotropic action [4]
COc1ccc(Cl)cc1C(=O)NCCc1ccc(S(=O)(=O)NC(=O)NC2CCCCC2)cc1 [glibenclamide]	no significant influence on glucagon release; also recorded: no significant effect	10.6 ± 2.8	6.0 ± 0.3 mmol/L	no significant effect on its own			
GLP-1(1-36)amide (HDEFERHAEGTFTSDVSSYLEGQAAKEFIAWLVKGR-NH2; UniProt P01275 92-127, looked up, fragment) [amide of the GLP-1 fragment comprising amino acid residues 1 to 36]					stimulates insulin release		
GLP-1(7-36)amide	10451 ± 5126 pg/ml/210 min	21.0 ± 7.2	5.1 ± 0.4 mmol/L			suppressed the glucagon response	
GLP-1(7-37) (HAEGTFTSDVSSYLEGQAAKEFIAWLVKGRG; Glucagon-like peptide 1(7-37); UniProt P01275 98-128, looked up) [GLP-1 fragment, residues 7 to 37; formula I when X is Gly--OH]							has been demonstrated
